Where “and” joins values, the source holds several entries; their conditions need not be identical. Equal entries are not always repeated.
Key:
[1] = Histological analysis of liver and adipose tissue; assay type: in vivo, mouse; conditions: DIO and db/db mice, 20 mg/kg, 5 weeks
Method: Fig. 5 APC improves hyperlipidemia of obese mice. DIO mice were continuously i.p. injected with control vehicle or APC with indicated doses (APC, 0, 10, and 20 mg/kg) or vehicle (Ctrl) one time daily for 5 weeks (n = 5–9). a Body-weight curves of these mice (left). Area under curve (AUC) analysis of curves is shown as a scatter chart at the right. […] Data are represented as mean ± SEM. *P < 0.05; **P < 0.01; P values were determined by one-way ANOVA followed Dunnett’s multiple comparisons test. The triglyceride (TG) contents in the serum (c) and liver (d) of these mice. The contents of (e) total cholesterol (TC), LDL cholesterol (LDL-C), and HDL cholesterol (HDL-C), (f) VLDL-C, and (g) nonesterified fatty acid (NEFA) in the serum of these mice. h The contents of hepatic NEFA and (i) glycerol in these mice, which were normalized by hepatic protein levels as determined by BCA assay. Data are represented as mean ± SEM (n = 5–6). *P < 0.05; **P < 0.01; P values were determined by one-way ANOVA followed Dunnett’s multiple comparisons test. j Histological analysis of liver and epididymis fat (WAT) from DIO mice treated with APC (20 mg/kg) or vehicle for 5 weeks. Tissues were stained with hematoxylin and eosin. Scale bars represent 100 μm. […]

FGF21 = assay: Immunoblotting of plasma and liver FGF21; assay type: in vivo, mouse
Method: 1 Supplementary Figure 10. A57 is novel inhibitor of the CREB/CRTC2 protein complex. […]
20 e) Immunoblotting of plasma and liver FGF21 protein in Crtc2KO mice, which induced by a high
21 fat diet for 13 weeks then orally administered APC (20 mg/kg), A57 (20 mg/kg) or vehicle (VEH) for
1 3 weeks. Two technological repeats present a composite pool including 5 mice per group. One
2 representative result from three-independent experiments is shown here.
3 f) Relative plasma FGF21 (top) and liver FGF21 (bottom), normalized by R250 signaling or
4 ACTIN respectively, is shown here as a bar graph. Data are represented as mean ± SEM (n=5 per
5 group, two technological repeats present a composite pool). ns, p > 0.05; *, p < 0.05; **, p < 0.01; p
7 for this figure are provided as a Source data file.

[2] = Blood chemistry (plasma hormones by ELISA); assay type: in vivo, mouse
Method: The plasma hormone levels of insulin and ghrelin were measured by ELISA kits from Millipore, glucagon and leptin were determined by ELISA kits from R&D.

[3] = tested on: CREB phosphorylation, CRTC2 dephosphorylation; assay: Immunoblotting/immunostaining of P-CREB and CRTC2 in primary hepatocytes; assay type: cell-based, mouse; conditions: for Relative P-CREB/CREB density: Supp. Fig.10 c, individual replicates
Method: Immunoblotting and immunoprecipitation assays were performed as previously described, with antibodies recognizing CREB, Ser133-P-CREB, AMPK, P-AMPK, AKT, P-AKT (Cell Signaling), PGC-1α (Merck), CRTC2 (Calbiochem), PCK1 (Santa Cruz), SREBP1 (Santa Cruz), SREBP2 (BD), HA (Convance), LXRα (Santa Cruz), FLAG (Sigma), GST (Covance), HIS (Abmart), GAPDH (AOGMA), α-TUBULIN (Abmart), β-ACTIN (Abmart), and other antibodies (Supplementary Table 3). For immunostaining assays, primary cultured hepatocytes seeded on coverslips were fixed with 4% paraformaldehyde for 20 min, permeabilized with 0.3% Triton X-100 in PBS, and then blocked by 5% normal goat serum and 0.3% Triton X-100 in PBS, followed by incubation with anti-CREB (1:1000), anti-P-CREB (1:1000), or anti-HA (1:3000) antibodies for 1 h at 4 °C. Slides were then washed, and after washing, slides were incubated with fluorochrome-conjugated secondary antibodies (Invitrogen). Slides were then washed and mounted with Vectashield mounting media containing 4, 6-diamidino-2-phenylindole (DAPI).

[4] = DIO mice, APC 10mg/kg, group mean, n=6
[5] = DIO mice, APC 10mg/kg, individual mouse
[6] = DIO mice, APC 20mg/kg, individual mouse

CC(C)=CCc1cc(C=CC(=O)O)cc(CC=C(C)C)c1O [APC, 3,5-diprenyl-4-hydroxycinnamic acid]
sizes of lipid droplets in liver and adipose tissues [1]: remarkably reduced
plasma and liver FGF21 (FGF21; Crtc2KO mice, oral 20 mg/kg, 3 weeks): did not further increase
liver FGF21 in CRTC2, group mean (Mean 2) (FGF21; Supp. Fig.10 f down, CRTC2KO mice, n=3, VEH mean 2.47): 2.579
Bands density of FGF21 in the liver (FGF21; Supp. Fig.10 f down, CT2KO (CRTC2KO) mice, oral, individual replicates, Veh about 2.47): 2.47 and 2.45 and 2.816
Bands density, plasma FGF21 in CRTC2 (FGF21; Supp. Fig.10 f up, CRTC2KO mice, individual replicates, VEH about 2.31): 2.4404 and 2.52 and 2.451
Bands density, plasma FGF21 in CRTC2, group mean (Mean 2) (FGF21; Supp. Fig.10 f up, CRTC2KO mice, n=3, VEH mean 2.31): 2.47
plasma insulin and glucagon levels ([2]; DIO and db/db mice): without a change
leptin levels ([2]; DIO mice): not significant
plasma glucagon in DIO, mean [2, 4]: 109 ng/dL
plasma leptin in DIO, mean [2, 4]: 54.89 ng/mL
plasma glucagon in DIO [2, 5]: 116.57 ng/dL and 100.35 ng/dL and 100.46 ng/dL and 94.57 ng/dL and 118.78 ng/dL and 123.34 ng/dL
plasma leptin in DIO [2, 5]: 54.49 ng/mL and 52.07 ng/mL and 53.5 ng/mL and 46.64 ng/mL and 59.49 ng/mL and 63.13 ng/mL
plasma glucagon in DIO, mean ([2]; DIO mice, APC 20mg/kg, group mean, n=6): 102.8 ng/dL
plasma glucagon in DIO [2, 6]: 108 ng/dL and 94.83 ng/dL and 125.84 ng/dL and 81.38 ng/dL and 93.2 ng/dL and 113.74 ng/dL
plasma leptin in DIO [2, 6]: 64.99 ng/mL and 59.47 ng/mL and 49.46 ng/mL and 54.02 ng/mL and 54.7 ng/mL and 57.91 ng/mL
Plasma Insulin, mean ([2]; Figure 8e, APC 10mg/kg, group mean, n=5, VEH mean 5.378): 4.88 ng/mL
Plasma Insulin ([2]; Figure 8e, APC 10mg/kg, individual mice): 5.624 ng/mL and 3.217 ng/mL and 4.483 ng/mL and 6.089 ng/mL and 4.987 ng/mL
Plasma Insulin, mean ([2]; Figure 8e, APC 20mg/kg, group mean, n=5, VEH mean 5.378): 4.334 ng/mL
Plasma Insulin ([2]; Figure 8e, APC 20mg/kg, individual mice): 3.191 ng/mL and 4.624 ng/mL and 5.384 ng/mL and 4.549 ng/mL and 3.923 ng/mL
leptin levels ([2]; db/db mice): effectively reduced
plasma ghrelin ([2]; db/db mice): no significant effects
Plasma Insulin, mean ([2]; db/db mice, group mean, n=6): 12.2 ng/mL
plasma glucagon in db/db, mean ([2]; db/db mice, group mean, n=6): 266 ng/dL
Plasma Insulin ([2]; db/db mice, individual mouse): 9.327 ng/mL and 11.259 ng/mL and 11.886 ng/mL and 10.188 ng/mL and 13.359 ng/mL and 17.190 ng/mL
plasma glucagon in db/db ([2]; db/db mice, individual mouse): 251.14 ng/dL and 274.24 ng/dL and 342.64 ng/dL and 244.9 ng/dL and 187.78 ng/dL and 295.42 ng/dL
plasma Ghrelin in db/db ip APC ([2]; db/db mice, ip APC, single animals): 12.653 ng/mL and 14.269 ng/mL and 10.885 ng/mL and 7.483 ng/mL and 8.587 ng/mL
Plasma leptin, mean of column B (APC) ([2]; db/db mice, group mean (Figure 8l), n=5, VEH mean 1.196): 0.714 ng/mL
Plasma leptin ([2]; db/db mice, individual animals (Figure 8l), n=5): 0.7357 ng/mL and 0.6738 ng/mL and 0.8588 ng/mL and 0.5919 ng/mL and 0.7100 ng/mL
Relative P-CREB/CREB density ([3]; CT (no glucagon), CTRL about 1.0): 1.21 and 1.302 and 1.2292
Relative P-CREB/CREB density ([3]; GLUC (glucagon), CTRL about 2.91): 3.03 and 2.994 and 2.993
CREB phosphorylation induced by glucagon ([3]; primary hepatocytes): very little effect
CRTC2 dephosphorylation or nuclear translocation ([3]; primary hepatocytes, APC 10 μM, glucagon): very little effect
